Reference: ChEMBL document CHEMBL1148666, “Inhibition of protein tyrosine phosphatase 1B by diterpenoids isolated from Acanthopanax koreanum” (Bioorg Med Chem Lett, 2006)

Biological target: T1, Tyrosine-protein phosphatase non-receptor type 1 (Homo sapiens, UniProt P18031)
T1 sequence (P18031 whole entry): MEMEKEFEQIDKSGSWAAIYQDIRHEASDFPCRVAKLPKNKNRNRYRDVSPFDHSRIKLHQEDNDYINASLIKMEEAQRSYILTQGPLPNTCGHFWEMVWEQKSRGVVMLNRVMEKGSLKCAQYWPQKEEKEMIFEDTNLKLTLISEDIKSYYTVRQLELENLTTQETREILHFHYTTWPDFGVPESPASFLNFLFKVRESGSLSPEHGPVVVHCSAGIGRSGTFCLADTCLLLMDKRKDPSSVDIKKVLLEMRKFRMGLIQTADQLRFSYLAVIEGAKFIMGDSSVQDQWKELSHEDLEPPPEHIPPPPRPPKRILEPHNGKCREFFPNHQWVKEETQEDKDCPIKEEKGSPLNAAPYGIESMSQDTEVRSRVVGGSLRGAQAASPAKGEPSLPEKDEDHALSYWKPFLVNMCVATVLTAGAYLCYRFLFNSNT
Assay: Inhibition of human recombinant PTP1B

C=C[C@]1(C)C=C2C(CC1)[C@]1(C)CCC[C@@](C)(C(=O)O)C1C[C@@H]2O (some centres undefined)
IC50: > 30 µM

CC(C)CC(=O)OC[C@H]1C[C@@]23CCC4[C@@](C)(CCC[C@@]4(C)C(=O)O)C2CC[C@@H]1C3 (some centres undefined)
IC50: 7.1 µM

CC(C)CC(=O)OC[C@@]1(O)C[C@@]23CCC4[C@@](C)(CCC[C@@]4(C)C(=O)O)C2CC[C@@H]1C3 (some centres undefined)
IC50: > 30 µM

C[C@@]12CCC[C@@](C)(C(=O)O)C1CC[C@@]13C[C@@H](CCC12)[C@](C)(O)C3 (some centres undefined)
IC50: > 30 µM

CCCCCCCCCCCCCCCC(=O)C1=C(O)[C@@H](CO)OC1=O
IC50: 4.5 µM

C=C[C@@]1(C)CC=C2C(CCC3[C@](C)(C(=O)O)CCC[C@@]23C)C1 (some centres undefined) [ACANTHOIC ACID]
IC50: 23.5 µM

C=C[C@]1(C)CC[C@@]2(O)[C@@H](C1)C(=O)CC1[C@](C)(C(=O)O)CCC[C@]12C (some centres undefined) [ACANTHOKOREOIC ACID A]
IC50: > 30 µM

C=C[C@@]1(C)CC=C2C(CCC3[C@](C)(CO)CCC[C@@]23C)C1 (some centres undefined) [ACANTHOL]
IC50: > 30 µM

C=C1C[C@@]23CC[C@H]4[C@@](C)(CCC[C@@]4(C)C(=O)O)[C@@H]2CC[C@@H]1C3 [KAURENOIC ACID]
IC50: 20.2 µM
